In the NIST ThermoML archive (doi:10.1016/j.tca.2014.03.019):

Key:
[1] = Crystal; for vapor or sublimation pressure: Transpiration method; for Normal melting temperature: DTA
[2] = Molar enthalpy of transition or fusion; details: Crystal; DSC

CC(=O)Nc1ccc(C(=O)O)cc1 [4-acetamidobenzoic acid]
[1]
Details	vapor or sublimation pressure [kPa]
395 K	1.43e-05
398.2 K	2.1e-05
398.5 K	2.09e-05
402.5 K	2.92e-05
405.5 K	3.48e-05
409.1 K	5.24e-05
412.1 K	6.72e-05
415.3 K	0.0001
418.9 K	0.000126
422.1 K	0.000193
425 K	0.000227
428.5 K	0.000352
431.7 K	0.000393
436.2 K	0.000775
440 K	0.000934

Details	Molar enthalpy of transition or fusion [kcal/mol]	Normal melting temperature [°C]
[1]	–	262.1
[2]	8.17	–

CC(=O)Nc1cccc(C(=O)O)c1 [3-(acetylamino)benzoic acid]
[1]
Details	vapor or sublimation pressure [kPa]
407.2 K	2.67e-05
410.9 K	4.67e-05
414.1 K	5.62e-05
416.6 K	6.27e-05
420.9 K	0.000102
423.6 K	0.000114
426.8 K	0.000148
427.3 K	0.000187
430.6 K	0.000246
433 K	0.000315
434.8 K	0.000374
436.1 K	0.000403
440.1 K	0.00051
442.9 K	0.000663

Details	Molar enthalpy of transition or fusion [kcal/mol]	Normal melting temperature [°C]
[1]	–	245.1
[2]	9.42	–

CC(=O)Nc1ccccc1C(=O)O [2-acetamidobenzoic acid]
[1]
Details	vapor or sublimation pressure [kPa]
344.7 K	1.66e-05
351.3 K	3.37e-05
357.3 K	5.58e-05
363.5 K	0.000111
363.8 K	0.000116
366.2 K	0.000138
369.7 K	0.000235
371 K	0.000243
373.5 K	0.000289
377.4 K	0.000555
380 K	0.000571
383.8 K	0.000948
387.2 K	0.00117
390.4 K	0.00152
393.5 K	0.00198

Details	Molar enthalpy of transition or fusion [kcal/mol]	Normal melting temperature [°C]
[1]	–	185.2
[2]	11.8	–
